We go through 31 molecules from US4923975A, “Valiolamine derivatives and production thereof” (Takeda Chemical Industries, Ltd., priority 1985, dated 1990).

Series [1] concerns α-glucosidase. Particulars: in words; valiolamine and N-substituted valiolamine derivatives (European Patent Publication No. 56194 and 89812); cited from earlier work.
The subject of series [2] is sheath blight of the rice plant. The experiment in a line: activity against the sheath blight of the rice plant (stated in words). Particulars: VA-G and VM-G.
The nature of a further series: Solubility in solvents. Conditions: for solubility in water: in words, for isolation and purification. It counts as physicochemical.
The target in series [3] is T1, sucrase from porcine small intestine (Sus scrofa, UniProt P56729).
T1 construct: sucrase from porcine small intestine; from tissue; host or cells: porcine small intestine
The experiment in a line: inhibition of sucrase from porcine small intestine (substrate 50 mM sucrose). Type of series: biochemical. Particulars: read-out: IC50 (molarity required for 50% inhibition of the enzymatic activity) against sucrase.

For series [4], the system named is α-glucosidase. The experiment in a line: α-glucosidase-inhibiting activity (stated in words). Particulars: VA-G and VM-G. Type of series: biochemical.
Another series deals with Rhizoctonia solanii. The experiment in a line: minimum concentration causing the abnormal branching at the tops of hypha of Rhizoctonia solanii. Type of series: cell-based. Particulars: method: J. Antibiotics 24,114-118 (1971). The procedure:
For example, the minimum concentration causing the abnormal branching at the tops of hypha of Rhizoctonia solanii [See J. Antibiotics 24,114-118 (1971)}was 0.5 μg/mL for VM-G and 2.5 μg/mL for VA-G.

Setting [5] is: in ethanol, ethyl acetate, chloroform, and acetone.
The mark [6] stands for this setting: in water, dimethylsulfoxide, and methanol.

T1 sequence (P56729 with tags, fused parts or gaps limits assumed): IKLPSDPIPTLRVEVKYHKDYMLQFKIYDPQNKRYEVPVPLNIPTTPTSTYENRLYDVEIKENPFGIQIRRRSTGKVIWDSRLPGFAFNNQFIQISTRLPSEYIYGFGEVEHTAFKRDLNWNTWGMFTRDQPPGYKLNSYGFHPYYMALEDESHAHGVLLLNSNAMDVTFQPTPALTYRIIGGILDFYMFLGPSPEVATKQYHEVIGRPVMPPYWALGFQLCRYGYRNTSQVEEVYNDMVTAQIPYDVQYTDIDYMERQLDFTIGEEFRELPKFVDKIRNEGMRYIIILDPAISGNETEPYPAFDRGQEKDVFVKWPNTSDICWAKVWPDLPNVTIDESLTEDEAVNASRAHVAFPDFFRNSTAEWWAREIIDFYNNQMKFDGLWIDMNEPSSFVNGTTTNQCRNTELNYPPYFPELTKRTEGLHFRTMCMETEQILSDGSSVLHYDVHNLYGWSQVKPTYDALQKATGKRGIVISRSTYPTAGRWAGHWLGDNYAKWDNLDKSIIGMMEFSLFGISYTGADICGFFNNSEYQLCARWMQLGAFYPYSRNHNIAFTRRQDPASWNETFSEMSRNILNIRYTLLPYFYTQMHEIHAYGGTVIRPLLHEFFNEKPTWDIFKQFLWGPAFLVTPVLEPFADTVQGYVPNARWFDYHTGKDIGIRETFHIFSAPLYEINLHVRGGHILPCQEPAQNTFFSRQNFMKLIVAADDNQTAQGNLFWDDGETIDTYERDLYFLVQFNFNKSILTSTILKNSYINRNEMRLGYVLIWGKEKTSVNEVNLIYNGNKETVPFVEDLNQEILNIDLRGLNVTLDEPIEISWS
T1 sequence (P56729 with tags, fused parts or gaps partner limits assumed): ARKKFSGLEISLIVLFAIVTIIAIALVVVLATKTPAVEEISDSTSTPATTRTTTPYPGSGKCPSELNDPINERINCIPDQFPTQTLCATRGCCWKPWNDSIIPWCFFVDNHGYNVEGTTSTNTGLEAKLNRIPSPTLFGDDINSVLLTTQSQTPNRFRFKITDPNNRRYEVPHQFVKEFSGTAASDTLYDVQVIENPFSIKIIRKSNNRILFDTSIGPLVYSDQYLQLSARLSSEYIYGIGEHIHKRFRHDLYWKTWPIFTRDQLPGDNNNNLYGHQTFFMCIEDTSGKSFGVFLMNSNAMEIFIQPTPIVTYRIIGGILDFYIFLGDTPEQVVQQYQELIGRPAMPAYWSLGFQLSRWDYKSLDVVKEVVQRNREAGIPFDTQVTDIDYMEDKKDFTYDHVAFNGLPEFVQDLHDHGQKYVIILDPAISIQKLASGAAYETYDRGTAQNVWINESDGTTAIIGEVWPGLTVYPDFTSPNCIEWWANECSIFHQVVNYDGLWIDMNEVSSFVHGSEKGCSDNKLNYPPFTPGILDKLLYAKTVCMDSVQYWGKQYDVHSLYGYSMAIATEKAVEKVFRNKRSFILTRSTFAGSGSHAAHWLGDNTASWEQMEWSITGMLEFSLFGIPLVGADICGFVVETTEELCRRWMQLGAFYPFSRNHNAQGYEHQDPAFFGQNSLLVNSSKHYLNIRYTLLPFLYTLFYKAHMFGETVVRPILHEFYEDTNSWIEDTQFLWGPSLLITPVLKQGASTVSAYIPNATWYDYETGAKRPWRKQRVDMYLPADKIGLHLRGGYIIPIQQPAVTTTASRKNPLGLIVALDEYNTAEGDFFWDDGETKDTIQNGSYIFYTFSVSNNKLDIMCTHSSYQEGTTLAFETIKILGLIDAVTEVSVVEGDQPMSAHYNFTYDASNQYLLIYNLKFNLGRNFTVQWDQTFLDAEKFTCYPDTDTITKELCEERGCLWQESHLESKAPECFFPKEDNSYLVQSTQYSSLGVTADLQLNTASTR

With `OC[C@@]1(O)C[C@H](NCCc2ccccc2)[C@H](O)[C@@H](O)[C@@H]1O` [(1), N-phenethylvaliolamine], the α-glucosidase-inhibitory action result in the series on α-glucosidase [1] is on record as “potent α-glucosidase-inhibitory action”. With `OC[C@@]1(O)C[C@H](NCC=Cc2ccccc2)[C@H](O)[C@@H](O)[C@@H]1O` [(2), N-(3-phenylallyl)valiolamine], the α-glucosidase-inhibitory action result in the series with α-glucosidase [1] is recorded as “potent α-glucosidase-inhibitory action”. With `OC[C@@]1(O)C[C@H](NCc2ccco2)[C@H](O)[C@@H](O)[C@@H]1O` [(3), N-furfurylvaliolamine], the α-glucosidase-inhibitory action entry in the series with α-glucosidase [1] is “potent α-glucosidase-inhibitory action”. Regarding `OC[C@@]1(O)C[C@H](NCc2cccs2)[C@H](O)[C@@H](O)[C@@H]1O` [(4), N-thenylvaliolamine], in the series on α-glucosidase [1], the α-glucosidase-inhibitory action result is recorded as “potent α-glucosidase-inhibitory action”.

Regarding `OC[C@@]1(O)C[C@H](NCc2cccnc2)[C@H](O)[C@@H](O)[C@@H]1O` [(5), N-(3-pyridylmethyl)valiolamine], in the series with α-glucosidase [1], the α-glucosidase-inhibitory action result is listed as “potent α-glucosidase-inhibitory action”. On to `OC[C@@]1(O)C[C@H](NCc2ccc(Br)cc2)[C@H](O)[C@@H](O)[C@@H]1O` [(6), N-(4-bromobenzyl)valiolamine], for which, in the series with α-glucosidase [1], the α-glucosidase-inhibitory action result is “potent α-glucosidase-inhibitory action”. For `OC[C@@]1(O)C[C@H](NC[C@H](O)c2ccccc2)[C@H](O)[C@@H](O)[C@@H]1O` [(7), N-[(R)-β-hydroxyphenethyl]valiolamine], the α-glucosidase-inhibitory action result with α-glucosidase [1] is reported as “potent α-glucosidase-inhibitory action”. In the case of `OC[C@@]1(O)C[C@H](NC[C@@H](O)c2ccccc2)[C@H](O)[C@@H](O)[C@@H]1O` [(8), N-[(S)-β-hydroxyphenethyl]valiolamine], the α-glucosidase-inhibitory action entry with α-glucosidase [1] is “potent α-glucosidase-inhibitory action”. Take `COc1ccccc1C(O)CN[C@H]1C[C@](O)(CO)[C@@H](O)[C@H](O)[C@H]1O` (stereo partly drawn) [(9), N-(β-hydroxy-2-methoxyphenethyl)valiolamine]: the α-glucosidase-inhibitory action result in the series on α-glucosidase [1] was “potent α-glucosidase-inhibitory action”.

On to `CC(C)(C)c1cc(CN[C@H]2C[C@](O)(CO)[C@@H](O)[C@H](O)[C@H]2O)cc(C(C)(C)C)c1O` [(10), N-(3,5-di-tert-butyl-4-hydroxybenzyl)valiolamine], for which the α-glucosidase-inhibitory action entry with α-glucosidase [1] was “potent α-glucosidase-inhibitory action”. Turning to `OC[C@@]1(O)C[C@H](NCC2CCCCC2)[C@H](O)[C@@H](O)[C@@H]1O` [(11), N-(cyclohexylmethyl)valiolamine], the α-glucosidase-inhibitory action entry in the series on α-glucosidase [1] is “potent α-glucosidase-inhibitory action”.

In the case of `CC(C)=CCC/C(C)=C/CN[C@H]1C[C@](O)(CO)[C@@H](O)[C@H](O)[C@H]1O` [(12), N-geranylvaliolamine], the α-glucosidase-inhibitory action result with α-glucosidase [1] is listed as “potent α-glucosidase-inhibitory action”. Consider `OCC(CO)N[C@H]1C[C@](O)(CO)[C@@H](O)[C@H](O)[C@H]1O` [(13), N-(1,3-dihydroxy-2-propyl)valiolamine], for which the α-glucosidase-inhibitory action result in the series on α-glucosidase [1] is “potent α-glucosidase-inhibitory action”. Regarding `OCC(N[C@H]1C[C@](O)(CO)[C@@H](O)[C@H](O)[C@H]1O)C(O)c1ccccc1` (stereo partly shown) [(14), N-(1,3-dihydroxy-1-phenyl-2-propyl)valiolamine], the α-glucosidase-inhibitory action result in the series with α-glucosidase [1] is on record as “potent α-glucosidase-inhibitory action”. For `OC[C@H](N[C@H]1C[C@](O)(CO)[C@@H](O)[C@H](O)[C@H]1O)c1ccccc1` [(15), N-[(R)-o-(hydroxymethyl)benzyl]valiolamine], the α-glucosidase-inhibitory action entry in the series on α-glucosidase [1] is “potent α-glucosidase-inhibitory action”. For `OC[C@@]1(O)C[C@H](NC2CCCCC2)[C@H](O)[C@@H](O)[C@@H]1O` [(16), N-cyclohexylvaliolamine], the α-glucosidase-inhibitory action result with α-glucosidase [1] was “potent α-glucosidase-inhibitory action”. As to `OC[C@@]1(O)C[C@H](NC2CCCCC2O)[C@H](O)[C@@H](O)[C@@H]1O` (stereo partly shown) [(17), N-(2-hydroxycyclohexyl)valiolamine], in the series with α-glucosidase [1], the α-glucosidase-inhibitory action entry was “potent α-glucosidase-inhibitory action”.

As for `OC[C@@]1(O)C[C@H](N[C@@H]2CCCC[C@H]2O)[C@H](O)[C@@H](O)[C@@H]1O` [(18), N-[(1R,2R)-2-hydroxycyclohexyl]valiolamine], the α-glucosidase-inhibitory action entry in the series on α-glucosidase [1] was “potent α-glucosidase-inhibitory action”. Turning to `OC[C@@]1(O)C[C@H](NC2CCCC2O)[C@H](O)[C@@H](O)[C@@H]1O` (stereo partly shown) [(19), N-(2-hydroxycyclopentyl)valiolamine], the α-glucosidase-inhibitory action result in the series on α-glucosidase [1] is on record as “potent α-glucosidase-inhibitory action”. With `CO[C@H]1O[C@H](C)[C@@H](N[C@H]2C[C@](O)(CO)[C@@H](O)[C@H](O)[C@H]2O)[C@H](O)[C@H]1O` [(20), Methyl 4-[(1S,2S)-(2,4,5(OH)/3,5)-2,3,4,5-tetrahydroxy-5-(hydroxymethyl)cyclohexyl]amino-4,6-dideoxy-α-D-glucopyranoside], the α-glucosidase-inhibitory action entry in the series on α-glucosidase [1] was “potent α-glucosidase-inhibitory action”. With `N[C@H]1C[C@H](CO)[C@@H](N[C@H]2C[C@](O)(CO)[C@@H](O)[C@H](O)[C@H]2O)[C@H](O)[C@H]1O` [(22), [(1S,2S)-(2,4,5(OH)/3,5)-2,3,4,5-tetrahydroxy-5-(hydroxymethyl)cyclohexyl][(1R,2S)-(2,6/3,4)-4-amino-2,3-dihydroxy-6-(hydroxymethyl)cyclohexyl]-amine], the α-glucosidase-inhibitory action entry in the series with α-glucosidase [1] is “potent α-glucosidase-inhibitory action”. As for `OC[C@H]1C[C@@H](N[C@H]2C[C@](O)(CO)[C@@H](O)[C@H](O)[C@H]2O)[C@H](O)[C@@H](O)[C@@H]1O` [(23), N-[(1R,2S)-(2,4/3,5)-2,3,4-trihydroxy-5-(hydroxymethyl)cyclohexyl]valiolamine], in the series on α-glucosidase [1], the α-glucosidase-inhibitory action result was “potent α-glucosidase-inhibitory action”. For `C[C@H]1C[C@H](N)[C@H](O)[C@@H](O)[C@@H]1N[C@H]1C[C@](O)(CO)[C@@H](O)[C@H](O)[C@H]1O` [(24), N-[(1R,2S)-(2,6/3,4)-4-amino-2,3-dihydroxy-6-methylcyclohexyl]valiolamine], the α-glucosidase-inhibitory action entry in the series with α-glucosidase [1] was “potent α-glucosidase-inhibitory action”. With `C[C@H]1C[C@H](O)[C@H](O)[C@@H](O)[C@@H]1N[C@H]1C[C@](O)(CO)[C@@H](O)[C@H](O)[C@H]1O` [(25), N-[(1R,2S)-(2,6/3,4)-2,3,4-trihydroxy-6-methylcyclohexyl]valiolamine], the α-glucosidase-inhibitory action result in the series on α-glucosidase [1] is reported as “potent α-glucosidase-inhibitory action”.

`C[C@H]1C[C@@H](O)[C@H](O)[C@@H](O)[C@@H]1N[C@H]1C[C@](O)(CO)[C@@H](O)[C@H](O)[C@H]1O` [(26), N-[(1R,2S)-(2,4,6/3)-2,3,4-trihydroxy-6-methylcyclohexyl]valiolamine]: the α-glucosidase-inhibitory action entry with α-glucosidase [1] is “potent α-glucosidase-inhibitory action”. With `C[C@H]1O[C@H](O[C@H]2[C@H](O)[C@@H](O)C(O)O[C@@H]2CO)[C@H](O)[C@@H](O)[C@@H]1N[C@H]1C[C@](O)(CO)[C@@H](O)[C@H](O)[C@H]1O` (stereo partly drawn) [(27), 4-O-α-[4-[[(1S)-(1,2,4,5(OH)/3,5)-2,3,4,5-tetrahydroxy-5-(hydroxymethyl)cyclohexyl]amino]-4,6-dideoxy-D-glucopyranosyl]-D-glucopyranose], in the series on α-glucosidase [1], the α-glucosidase-inhibitory action entry is “potent α-glucosidase-inhibitory action”. With `C[C@H]1O[C@H](O[C@H]2[C@H](O)[C@@H](O)[C@@H]3OC[C@H]2O3)[C@H](O)[C@@H](O)[C@@H]1N[C@H]1C[C@](O)(CO)[C@@H](O)[C@H](O)[C@H]1O` [(28)], the α-glucosidase-inhibitory action result with α-glucosidase [1] was “potent α-glucosidase-inhibitory action”. What is called IC50 is the point on the concentration scale where inhibition reaches its midpoint. As usually defined, the minimal effective concentration is the lowest level tested that produced the effect sought. Higher therefore signals a need for much substance. `OCC1=C[C@H](N[C@H]2C[C@](O)(CO)[C@@H](O)[C@H](O)[C@H]2O)[C@H](O)[C@@H](O)[C@@H]1O` [VA-G, validoxylamine G]: the “activity against the sheath blight of the rice plant” value in series [2] is “an activity against the sheath blight of the rice plant”. The Solubility in solvents entry in “Solubility in solvents” (setting [5]) was “Slightly soluble or insoluble”; in the series “Solubility in solvents” (setting [6]) it was “Soluble”. The solubility in water result in the series “Solubility in solvents” is “water-soluble basic substances”. In addition, the IC50 in series [3] was determined as 8.8 µM. Also, the α-glucosidase-inhibiting activity entry with α-glucosidase [4] is reported as “α-glucosidase-inhibiting activity”. Further, the minimal effective concentration in the series on Rhizoctonia solanii was 2.5 µg/mL.

Turning to `OCC1=C[C@H](N[C@H]2C[C@](O)(CO)[C@@H](O[C@@H]3O[C@H](CO)[C@@H](O)[C@H](O)[C@H]3O)[C@H](O)[C@H]2O)[C@H](O)[C@@H](O)[C@@H]1O` [VM-G, validamycin G], in series [2], the “activity against the sheath blight of the rice plant” value is “an activity against the sheath blight of the rice plant”. The Solubility in solvents result is listed as “Slightly soluble or insoluble” in the series “Solubility in solvents” (setting [5]) and “Soluble” in the series “Solubility in solvents” (setting [6]). Also, the solubility in water result in the series “Solubility in solvents” is on record as “water-soluble basic substances”. The IC50 in series [3] is 110 µM. Also, in the series with α-glucosidase [4], the α-glucosidase-inhibiting activity result is recorded as “α-glucosidase-inhibiting activity”. The minimal effective concentration with Rhizoctonia solanii stood at 0.5 µg/mL. For `N[C@H]1C[C@](O)(CO)[C@@H](O)[C@H](O)[C@H]1O` [Valiolamine, valiolamine], the α-glucosidase-inhibitory action result in the series with α-glucosidase [1] is on record as “potent α-glucosidase-inhibitor”. In the case of “Methyl 4-[(1S,2S)-(2,4,5(OH)/3,5)-2,3,4,5-deoxy-α-D-glucopyranoside [(21)]”, the α-glucosidase-inhibitory action result with α-glucosidase [1] is “potent α-glucosidase-inhibitory action”.
